Measurements: patent US20230278983A1, “INDOLE DERIVATIVES AND USES THEREOF FOR TREATING A CANCER” (Universite Claude Bernard Lyon 1, priority 2020, published 2023)

Key:
A549 and MDA-MB231 cells = experiment: Immunoblotting of CK2-dependent substrate phosphorylation and apoptosis markers; assay type: cell-based, human; details: A549 24 hours, MDA-MB231 48 hours
MDA-MB231 cells = experiment: Cell death, IncuCyte propidium iodide live-cell imaging; assay type: cell-based, human; details: 48 hours, increasing concentrations
786-O and RPTEC cells = experiment: Immunoblotting of CK2-dependent substrate phosphorylation and apoptosis markers; assay type: cell-based; details: 48 hours or 24 hours, increasing concentrations
[1] = test system: MCF10-A cells (WT and CK2β-depleted); experiment: Cell death, IncuCyte propidium iodide live-cell imaging; assay type: cell-based; details: n=5
RPTEC cells = experiment: as above; assay type: cell-based; details: 48 hours, 1 μM AB668 with 5 μM tariquidar (n=5)
786-O cells = experiment: as above; assay type: cell-based, human

## CC(C)COC(=O)c1[nH]c2ccc(F)cc2c1-c1cn(CC2CCN(CCNS(=O)(=O)c3ccc(CC(C)C)cc3)CC2)nn1 [AB668, Isobutyl 5-fluoro-3-(1-((1-(2-((4-isobutylphenyl)sulfonamido)ethyl)piperidin-4-yl)methyl)-1H-1,2,3-triazol-4-yl)-1H-indole-2-carboxylate]
A549 and MDA-MB231 cells
  CK2-dependent substrate phosphorylation and apoptosis (western blot): inhibit CK2-dependent substrate phosphorylation and induce apoptosis in different cancer cell lines
MDA-MB231 cells
  Sensitivity to compound-mediated cell death, MDA-MB231 versus normal MCF10A: much more sensitive
786-O and RPTEC cells
  CK2-dependent substrate phosphorylation and apoptosis (western blot): inhibit CK2-dependent substrate phosphorylation in cells and induce apoptosis
[1]
  Cell death in CK2β-depleted versus WT cells: more pronounced in CK2β-depleted cells than in WT cells
RPTEC cells
  Effect of P-glycoprotein inhibitor tariquidar on compound effect: has not changed the effect of AB668
786-O cells; 24 hours, 786-O (VHL+/−) at 1 μM, RPTEC at 10 μM (n=5)
  Cell death induction in RCC lines compared to normal cells: much more efficient in inducing cell death in RCC lines
786-O cells; 36 hours, increasing concentrations (n=4 to 6)
  Sensitivity to compound-mediated cell death, 786-O versus RPTEC or HEK 293: much more sensitive
786-O cells; at 5 and 2.5 μM
  Cell death induction compared to CX-4945 and sunitinib: much more efficient in inducing cell death
